This is an account of results in PMC6382696, “Drug Repurposing: The Anthelmintics Niclosamide and Nitazoxanide Are Potent TMEM16A Antagonists That Fully Bronchodilate Airways” (Frontiers in Pharmacology, 2019).

Experiment [1] has as its system primary human airway smooth muscle cells. The experiment in a line: Methacholine-induced depolarization of primary human airway smooth muscle cells. Type of experiment: cell-based. The following applies: donor 199524, 20 M methacholine (so in the source), read-out: EC50 inhibition of methacholine-induced depolarization (converted). On the procedure: Cultured human bronchial smooth muscle cells (BSMC) from Lonza were resuspended in Smooth Muscle Growth Medium-2 (SmGM-2; Lonza) at a concentration of 4 × 10^5 cells per ml. One hundred microliters of cells per well were plated in a black wall clear bottom polystyrene 96-well tissue culture plate and incubated in a 37°C humidified incubator with 5% CO2 overnight. Cells were serum starved by removing the SmGM-2 and replaced with one hundred microliters per well of Smooth Muscle Cell Basal Medium 2 (SmBM-2), phenol red-free (PromoCell), and incubated in a 37°C humidified incubator with 5% CO2 for 24 h. SmBM-2 was replaced with 100 microliters of fresh SmBM-2. […] Using the FLIPR-Tetra (Molecular Devices), three measurements of the baseline fluorescence were taken over the span of 1 min. […] Fifty-five fluorescence measurements were taken over the span of 14 min. The area under the curve (AUC) from the fluorescence kinetic traces (normalized to baseline fluorescence) were calculated. The amount of fluorescence in the presence of compound compared with that in the presence of DMSO vehicle alone (HI control) was calculated using the formula: % control (POC) = (compd – average LO)/(average HI – average LO)^∗100. […]
Panels (B-D) show raw fluorescence data from the membrane potential assay of buffer alone (dashed line), buffer plus 20 µM methacholine […]
RFU = relative fluorescence units. […]

The subject of another experiment is HCT116. Also on record: method as in Li et al., 2014. The following applies: ref Li et al., 2014, read-out: IC50 inhibition of proliferation; cited from earlier work.

Take `Oc1ccc(Cl)cc1Cc1cc(Cl)ccc1O` [Dichlorophen]: in experiment [1], the half-maximal effective concentration (EC50) is 3700 nM. With `O=C(Nc1ccc([N+](=O)[O-])cc1Cl)c1cc(Cl)ccc1O` [Niclosamide], the IC50 in the experiment with HCT116 was 370 nM.

For orientation: EC50 means the concentration that produces a half-maximal response.
